Ends that are not written are not given here.
T1: TLR4 TIR domain BB loop peptide (Homo sapiens)
T1 chain: RDFIPGVAIAA

B1: TIP1 (TIRAP TIR-derived decoy peptide with N-terminal antennapedia CPP) (peptide)
chain: RQIKIWFQNRRMKWKKSHCRVLLI
modifications: also: biotinylated and immobilized

Assays:
[1] = test system: TLR4 (HEK-Blue hTLR4 cells); test: SEAP activity (NF-κB), HEK-Blue hTLR4, LPS; type: cell-based; settings: n ≥ 3; for LPS-induced NF-κB activity (SEAP), peptides in the absence of CPP: not conjugated with CPP
Experimental: (§1) HEK-Blue-hTLR4 cells were seeded at a density of 2 × 10^5 cells/well and grown overnight in 24-well plates (BD Biosciences). The next day, the supernatant was removed, and the medium was replaced with fresh medium. Aliquots of supernatants (200 µl) from the treated cells were transferred to microcentrifuge tubes and heated for 10 min at 65 °C on a heating block (FINEPCR Co., Seoul, Korea). The supernatants were then transferred into new 96-well plates (BD Biosciences), and SEAP production was quantified using the HEK-Blue detection kit (InvivoGen). HEK-Blue IL-1R cells were seeded at a density of 2 × 10^5 cells/well and grown in 24-well plates (BD Biosciences) overnight, and SEAP production was measured by means of QUANTI-Blue (InvivoGen). Absorbance was measured on a microplate reader (spectrophotometry system; Molecular Devices Inc., Silicon Valley, CA, USA) or a Cytation 5 Cell Imaging Multi-Mode Reader (Bio-Tek Instruments, Winooski, VT, USA) at 620 nm.
The TLR4-mediated response to LPS leads to a direct interaction between the TIR domains of TIRAP and MyD88, resulting in the subsequent activation of the MyD88-dependent downstream cascade. On the other hand, LPS-induced activation of TLR4 can cause the interaction between the TIR domains of TRAM and TRIF, which thereafter initiates MyD88-independent downstream signaling. Multiple peptides were designed from the TIR domain of TIRAP to possibly target the TIR domain of TLR4. […] The inhibitory effects of the peptides (TIP1 and TIP2) in the absence of CPP were evaluated by measuring the SEAP activity in HEK-Blue hTLR4 cells. […] To evaluate the specific binding of TIP1 to TLRs, we measured the NF-κB activity and protein expression of NF-κB and MAPKs by the SEAP activity assay and western blotting in HEK-Blue IL-1R cells. […]

[2] = test system: TLR signaling (RAW 264.7 cells); test: TNF-α ELISA, RAW 264.7, peptides not conjugated with CPP; type: cell-based, mouse; settings: TIP1 without CPP 12.5, 25, and 50 µM (Fig. 2l); Poly(I:C) 24 h (Supplementary Fig. 1c)
Experimental: RAW 264.7, THP1, and mBMDM cells were seeded at a density of 2 × 10^5 cells/well in 96-well plates (BD Biosciences) or at 5 × 10^5 cells/well in 24-well plates (BD Biosciences) and were grown overnight. After 24 h of treatment, IFN-β secretion was measured by means of the LEGEND MAX Mouse IFN-β precoated ELISA Kit (BioLegend), IL-6 secretion was assessed by a Mouse IL-6 ELISA MAX Deluxe (BioLegend) or Mouse IL-6 Platinum ELISA (eBioscience), TNF-α production was assessed using the Mouse TNF alpha ELISA Ready-SET-Go! kit (eBioscience), and the IL-1β cytokine level was measured with the Mouse or Human IL-1β ELISA Ready-SET-Go! kit (eBioscience). hBMNCs were seeded at a density of 4 × 10^4/well in 96-well plates (BD Biosciences) and then grown overnight. After 24 h of treatment, the secretion levels of IL-6 and TNF-α were assessed using Human IL-6 ELISA MAX Deluxe (BioLegend) and Human TNF alpha ELISA MAX Deluxe (BioLegend), respectively. The plates were then analyzed on a microplate spectrophotometer system (Molecular Devices) at the appropriate wavelength.
Fig. 2 Inhibitory effects of TIP1 on TLR signaling pathways. a Cell viability was measured by the MTT assay upon the treatment of RAW 264.7 cells with various concentrations of TIP1 (12.5, 25, or 50 µM) for 24 h. […] The secretion of IFN-β was measured by an ELISA. q hPBMCs were treated with TIP1 in the presence or absence of LPS. […]

[3] = test system: IL-1R (HEK-Blue IL-1R cells); test: SEAP activity (NF-κB), HEK-Blue IL-1R, IL-1β; type: cell-based; settings: peptide 1 h before IL-1β (300 pg/ml), 24 h; n ≥ 3
Experimental: as §1
The TLR4-mediated response to LPS leads to a direct interaction between the TIR domains of TIRAP and MyD88, resulting in the subsequent activation of the MyD88-dependent downstream cascade. […] The inhibitory effects of the peptides (TIP1 and TIP2) in the absence of CPP were evaluated by measuring the SEAP activity in HEK-Blue hTLR4 cells. […]

[4] = target: T1, TLR4 TIR domain BB loop peptide; test: SPR

| Molecule | LPS-induced NF-κB activity (SEAP), peptides in the absence of CPP [1] | inhibitory effect on TNF-α secretion after removal of CPP [2] | LPS-induced SEAP activity (NF-κB) ([1]; CPP-conjugated peptide, 12.5 to 50 μM, peptide 1 h before LPS, 24 h) | IL-1β-induced NF-κB activity (SEAP) [3] | Kd [4] |
| --- | --- | --- | --- | --- | --- |
| SHCRVLLI [TIP1 without CPP, TIP1 peptide not conjugated with CPP] | neither peptide significantly inhibited NF-κB activity | loss of the inhibitory effect |  |  |  |
| TIPLLS [TIP2 without CPP, TIP2 peptide not conjugated with CPP] | neither peptide significantly inhibited NF-κB activity | loss of the inhibitory effect |  |  |  |
| TIPLLS [TIP2, TIPLLS from the TIR domain of TIRAP, conjugated in tandem to a cell-penetrating peptide (…) at N terminus] |  |  | did not hinder LPS-induced NF-κB activity | did not exert any significant inhibitory effects |  |
| B1 |  |  |  |  | 40.2 µM |
